Measured values taken from patent publication US8063094B2, “Anti-cytokine heterocyclic compounds” (Boehringer Ingelheim International GmbH, priority 2007, dated 2011).

For `CNCCCc1c(C(=O)O)[nH]c2ccc(C(N)=O)cc12` [Example 13, 5-carboxamide-3-(3-methylaminopropyl)-1H-indole-2-carboxylic acid], the melting point was 266 to 268 °C (dec.).
